PubChem BioAssay (NCI)
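Results reflect a 48-hour exposure of cells in 96-well plates to compound at five concentrations. The concentration for 50% growth inhibition is given as GI50. The concentration for full growth arrest is given as TGI.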

Key:
Experiment in all cases: growth of human tumour cells (NCI), 48 h
EKVX NSCLC = system: EKVX NSCLC
RPMI-8226 leukemia = system: RPMI-8226 leukemia
HCT-116 colon = system: HCT-116 colon
M14 melanoma = system: M14 melanoma
HL-60(TB) leukemia = system: HL-60(TB) leukemia
LOX IMVI melanoma = system: LOX IMVI melanoma
ACHN renal = system: ACHN renal
K-562 leukemia = system: K-562 leukemia
SW-620 colon = system: SW-620 colon
OVCAR-3 ovarian = system: OVCAR-3 ovarian

Compound	GI50 (EKVX NSCLC) [µM]	TGI (EKVX NSCLC) [µM]	GI50 (RPMI-8226 leukemia) [µM]	TGI (RPMI-8226 leukemia) [µM]	GI50 (HCT-116 colon) [µM]	TGI (HCT-116 colon) [µM]	GI50 (M14 melanoma) [µM]	TGI (M14 melanoma) [µM]	GI50 (HL-60(TB) leukemia) [µM]	GI50 (LOX IMVI melanoma) [µM]	TGI (LOX IMVI melanoma) [µM]	GI50 (ACHN renal) [µM]	TGI (ACHN renal) [µM]	GI50 (K-562 leukemia) [µM]	GI50 (SW-620 colon) [µM]	TGI (SW-620 colon) [µM]	GI50 (OVCAR-3 ovarian) [µM]	TGI (OVCAR-3 ovarian) [µM]	TGI (K-562 leukemia) [µM]	TGI (HL-60(TB) leukemia) [µM]
COc1ccc2c(c1)/C(=C/c1c(C)nc3sc(C)nn13)C(=O)N2	8.36	> 100	4.17	> 100	1.77	> 100	1.79	> 27.9	0.663	5.49	> 100	6.53	> 100	0.394	0.695	> 100	0.959	37.9		
Cc1nc2ccccc2c(N)c1-c1cc(C)c2c(C)nc3ccccc3c2n1	1.61	3.29	0.173	0.52	0.257	0.728	1.34	2.65	0.454	0.248	0.717	0.237	0.599	0.256	0.183	0.435	0.69	1.83	> 100	
NC(=O)c1cccc2cn(-c3ccc([C@@H]4CCCNC4)cc3)nc12	19.7	64.2	22.5	> 80.6	10.8	25.1	10.7	26.3	15.7	8.16	22.2	12.4	25.9	14.1	10.4	51.3	14.8	31.6	36.8	34.6
CCCCC(=O)OCC(=O)[C@]1(O)Cc2c(O)c3c(c(O)c2[C@@H](OC2CC(NC(=O)C(F)(F)F)C(O)C(C)O2)C1)C(=O)c1c(OC)cccc1C3=O (some centres not stated)		13.5		32.7		2.91		8.62			1.37		3.04			> 52.4		20.1	> 21.9	6.41
CC(C)=CC(=O)C1c2cccc(O)c2C(=O)c2c(O)cc(C)cc21 (configuration not stated)		31.5		30.4		6.39		10.1			3.74		4.77			10.2		3.7	> 100	9.15
Cc1cc(I)cc(CN(C)CCCCN2CCCCC2)c1O	20.9	87.3	8.68	25.5	8.78	21.1	3.31	12.4	10.9	11.5	24	27.3	76.7	4.03	13.3	27.5	20	53.4	17.1	26.3
